Molecules are shown by their SMILES. pIC50: −log10 of the molar value.

The term pIC50 denotes the negative decadic logarithm of the IC50, by convention in mol/L.

In this test the target is hNav1.7 (Homo sapiens (Human), UniProt Q15858). The experiment in a line: Tritiated sulfonamide competitive binding to membranes from cells expressing hNav1.7 and the β1 subunit.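 Also: displacement of the tritiated ligand from recombinant cell membranes, read by liquid scintillation counting of filter-bound radioactivity, nonspecific binding defined with 1 µM unlabelled compound.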 The settings on record: 100 pM [3H]compound, 18 h, room temperature; inactivated state of NaV1.7 membrane binding; read-out: NaV1.7 Ligand Binding Assay (IC50).
Sequence of hNav1.7 (Q15858 other isoform, or with tags, fused parts or gaps): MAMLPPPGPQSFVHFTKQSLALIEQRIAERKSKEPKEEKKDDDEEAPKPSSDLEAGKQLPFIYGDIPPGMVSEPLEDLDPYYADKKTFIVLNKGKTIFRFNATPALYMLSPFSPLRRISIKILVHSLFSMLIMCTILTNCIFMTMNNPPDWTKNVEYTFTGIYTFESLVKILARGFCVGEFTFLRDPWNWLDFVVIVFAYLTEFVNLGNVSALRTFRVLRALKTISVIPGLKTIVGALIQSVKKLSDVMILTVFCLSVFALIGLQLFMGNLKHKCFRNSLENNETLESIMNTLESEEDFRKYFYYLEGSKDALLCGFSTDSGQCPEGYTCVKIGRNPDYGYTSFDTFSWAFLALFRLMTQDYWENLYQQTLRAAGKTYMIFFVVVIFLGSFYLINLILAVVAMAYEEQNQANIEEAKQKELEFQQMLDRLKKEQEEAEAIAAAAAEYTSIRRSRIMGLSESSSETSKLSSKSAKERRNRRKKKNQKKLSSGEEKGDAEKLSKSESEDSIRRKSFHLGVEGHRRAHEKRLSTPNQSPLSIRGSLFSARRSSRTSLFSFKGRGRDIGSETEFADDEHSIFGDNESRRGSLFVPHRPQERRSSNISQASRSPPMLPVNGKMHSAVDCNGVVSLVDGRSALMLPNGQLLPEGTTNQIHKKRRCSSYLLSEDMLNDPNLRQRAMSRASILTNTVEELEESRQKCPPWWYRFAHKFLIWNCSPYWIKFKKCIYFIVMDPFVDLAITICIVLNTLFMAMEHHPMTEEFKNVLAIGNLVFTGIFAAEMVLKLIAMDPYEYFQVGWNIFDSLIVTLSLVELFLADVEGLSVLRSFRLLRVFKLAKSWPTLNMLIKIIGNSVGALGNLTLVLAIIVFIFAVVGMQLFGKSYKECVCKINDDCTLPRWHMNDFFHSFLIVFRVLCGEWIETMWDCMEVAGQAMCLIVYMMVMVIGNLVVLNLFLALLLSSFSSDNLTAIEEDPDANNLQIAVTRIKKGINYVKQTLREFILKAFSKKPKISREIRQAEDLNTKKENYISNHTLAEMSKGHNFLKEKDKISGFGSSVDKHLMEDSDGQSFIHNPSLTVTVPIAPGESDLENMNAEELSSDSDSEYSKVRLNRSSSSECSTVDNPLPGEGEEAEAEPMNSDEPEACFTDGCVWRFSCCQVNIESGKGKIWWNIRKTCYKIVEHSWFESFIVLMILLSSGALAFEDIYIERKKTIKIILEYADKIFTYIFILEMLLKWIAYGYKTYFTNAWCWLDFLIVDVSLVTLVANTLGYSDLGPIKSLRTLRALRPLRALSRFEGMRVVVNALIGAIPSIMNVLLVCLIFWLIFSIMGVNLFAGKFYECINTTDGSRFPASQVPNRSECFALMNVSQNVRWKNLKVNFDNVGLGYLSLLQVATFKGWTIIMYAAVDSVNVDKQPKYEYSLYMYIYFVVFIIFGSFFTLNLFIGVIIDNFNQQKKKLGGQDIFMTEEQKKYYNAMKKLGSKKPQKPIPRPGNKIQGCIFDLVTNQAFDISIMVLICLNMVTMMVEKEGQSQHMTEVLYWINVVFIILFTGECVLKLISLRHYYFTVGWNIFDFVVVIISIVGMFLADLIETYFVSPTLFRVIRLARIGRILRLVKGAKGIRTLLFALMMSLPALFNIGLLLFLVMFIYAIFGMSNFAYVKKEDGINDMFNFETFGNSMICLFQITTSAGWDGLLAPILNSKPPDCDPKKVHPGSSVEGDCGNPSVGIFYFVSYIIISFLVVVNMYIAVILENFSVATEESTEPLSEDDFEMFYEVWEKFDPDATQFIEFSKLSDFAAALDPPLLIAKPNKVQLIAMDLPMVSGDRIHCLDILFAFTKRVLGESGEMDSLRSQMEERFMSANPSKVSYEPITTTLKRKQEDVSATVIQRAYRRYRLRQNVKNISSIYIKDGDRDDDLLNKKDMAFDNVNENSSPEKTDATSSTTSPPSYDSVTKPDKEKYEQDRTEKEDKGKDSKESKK
Sequence of hNav1.7 (Q07699 19-218 partner): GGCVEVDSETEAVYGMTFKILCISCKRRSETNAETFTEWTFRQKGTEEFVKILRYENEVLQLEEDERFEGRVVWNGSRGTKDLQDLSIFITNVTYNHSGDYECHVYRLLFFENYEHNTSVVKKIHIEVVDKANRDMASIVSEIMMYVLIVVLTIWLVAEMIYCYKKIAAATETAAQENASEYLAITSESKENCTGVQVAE
Turning to `CC1(C)C2CCC1(C)[C@H](Oc1cc3nnc(NS(C)(=O)=O)n3cc1C1CC1)C2` (stereo in doubt) [Example 31, N-(6-cyclopropyl-7-(((1S,2R,4R)-1,7,7-trimethylbicyclo-[2.2.1]heptan-2-yl)oxy)-[1,2,4]triazolo[4,3-a]pyridin-3-yl)methanesulfonamide], the pIC50 is 6.59.

Take `CC1(C)C2CC[C@]1(C)[C@H](Oc1cc3nnc(NS(C)(=O)=O)n3cc1C1CC1)C2` (stereo in doubt) [Example 86]: the pIC50 is 6.59.

Turning to `CS(=O)(=O)Nc1nnc2cc(OCC3CCCCC3)c(Br)cn12` [Example 6], the pIC50 is 7.04.

Turning to `C=Cc1cn2c(NS(C)(=O)=O)nnc2cc1OCC1(C)CCCCC1` [Example 7, N-(7-((1-methylcyclohexyl)methoxy)-6-vinyl-[1,2,4]-triazolo[4,3-a]pyridin-3-yl)methanesulfonamide], the pIC50 was 7.19.

For `C=C(C)c1cn2c(NS(C)(=O)=O)nnc2cc1OCC12CC3CC(CC(C3)C1)C2` [Example 8, N-(7-(adamantan-1-ylmethoxy)-6-(prop-1-en-2-yl)-[1,2,4]-triazolo[4,3-a]pyridin-3-yl)methanesulfonamide], the pIC50 was 7.29.

In the case of `CS(=O)(=O)Nc1nnc2cc(OC[C@H]3CC[C@H](C(F)(F)F)CC3)c(C3CC3)cn12` [Example 13, N-(6-cyclopropyl-7-(((trans)-4-(trifluoromethyl)cyclohexyl)-methoxy)-[1,2,4]triazolo[4,3-a]pyridin-3-yl)methanesulfonamide], the pIC50 is 7.65.

Consider `CC1(COc2cc3nnc(NS(C)(=O)=O)n3cc2C2CC2)CCCCC1` [Example 14, N-(6-cyclopropyl-7-((1-methylcyclohexyl)methoxy)-[1,2,4]-triazolo[4,3-a]pyridin-3-yl)methanesulfonamide], for which the pIC50 is 7.85.

Consider `CCc1cn2c(NS(=O)(=O)N3CC(F)C3)nnc2cc1OCC12CC3CC(CC(C3)C1)C2` [Example 15, N-(7-((3r,5r,7r)-adamantan-1-ylmethoxy)-6-ethyl-[1,2,4]triazolo[4,3-a]pyridin-3-yl)-3-fluoroazetidine-1-sulfonamide], for which the pIC50 was 6.86.

For the compound `O=S(=O)(Nc1nnc2cc(OCC3CCC4(CC3)CC4)c(C3CC3)cn12)C1CC1` [Example 16, N-(6-cyclopropyl-7-(spiro[2.5]octan-6-ylmethoxy)-[1,2,4]triazolo[4,3-a]pyridin-3-yl)cyclopropanesulfonamide], the pIC50 is 7.66.

On to `CCS(=O)(=O)Nc1nnc2cc(OCC34CC5CC(CC(C5)C3)C4)c(C3CC3)cn12` [Example 17, N-(7-((3r,5r,7r)-adamantan-1-ylmethoxy)-6-cyclopropyl-[1,2,4]triazolo[4,3-a]pyridin-3-yl)ethanesulfonamide], for which the pIC50 is 8.37.

On to `CC1(S(=O)(=O)Nc2nnc3cc(OCC45CC6CC(CC(C6)C4)C5)c(C4CC4)cn23)CC1` [Example 19, N-(7-((3r,5r,7r)-adamantan-1-ylmethoxy)-6-cyclopropyl-[1,2,4]triazolo[4,3-a]pyridin-3-yl)-1-methylcyclopropane-1-sulfonamide], for which the pIC50 is 8.14.

Consider `CS(=O)(=O)Nc1nnc2cc(OCCC34CC5CC(CC(C5)C3)C4)c(C3CC3)cn12` [Example 21], for which the negative-log IC50 (pIC50) was 8.07.

For the compound `O=S(=O)(Nc1nnc2cc(OCCC34CC5CC(CC(C5)C3)C4)c(C3CC3)cn12)C1CC1` [Example 22], the pIC50 is 8.13.

Regarding `O=S(=O)(Nc1nnc2cc(OC3C4CC5CC(C4)CC3C5)c(C3CC3)cn12)C1CC1` (stereo not shown) [Example 24, N-(7-(adamantan-2-yloxy)-6-cyclopropyl-[1,2,4]triazolo-[4,3-a]pyridin-3-yl)cyclopropanesulfonamide], the pIC50 is 7.18.

Take `CS(=O)(=O)Nc1nnc2cc(OCC3CC4C5CCC(C5)C4C3)c(C3CC3)cn12` (stereo not shown) [Example 25]: the pIC50 is 8.28.

In the case of `CC1(C)[C@H]2CC[C@H](COc3cc4nnc(NS(C)(=O)=O)n4cc3C3CC3)[C@@H]1C2` [Example 28, N-(6-cyclopropyl-7-(((1S,2S,5S)-6,6-dimethylbicyclo[3.1.1]heptan-2-yl)methoxy)-[1,2,4]triazolo[4,3-a]pyridin-3-yl)methanesulfonamide], the pIC50 was 8.59.

Regarding `CC1(C)[C@H]2CC[C@H](COc3cc4nnc(NS(=O)(=O)N5CCC5)n4cc3C3CC3)[C@@H]1C2` [Example 30], the pIC50 was 8.17.

Consider `CS(=O)(=O)Nc1nnc2cc(OC[C@H]3CC[C@H](C)CC3)c(Br)cn12` [Example 32], for which the pIC50 was 7.06.

Consider `CS(=O)(=O)Nc1nnc2cc(OC[C@H]3CC[C@H](C)CC3)c(C3CC3)cn12` [Example 33], for which the pIC50 was 7.74.

In the case of `O=S(=O)(Nc1nnc2cc(OC3CCC4(CCCCC4)CC3)c(C3CC3)cn12)C1CC1` [Example 35, N-(6-cyclopropyl-7-(spiro[5.5]undecan-3-yloxy)-[1,2,4]triazolo-[4,3-a]pyridin-3-yl)cyclopropanesulfonamide], the pIC50 was 7.29.

With `CS(=O)(=O)Nc1nnc2cc(OCC3(C(F)(F)F)CCCC3)c(C3CC3)cn12` [Example 37], the pIC50 is 7.34.

On to `O=S(=O)(Nc1nnc2cc(COc3ccc(Cl)c(Cl)c3)c(C3CC3)cn12)C1CC1` [Example 39], for which the pIC50 is 8.17.

As for `O=S(=O)(Nc1nnc2cc(COc3ccc(Cl)c(Cl)c3)c(C3CC3)cn12)N1CCC1` [Example 41, N-(6-cyclopropyl-7-((3,4-dichlorophenoxy)methyl)-[1,2,4]triazolo[4,3-a]pyridin-3-yl)azetidine-1-sulfonamide], the pIC50 was 7.72.

Regarding `O=S(=O)(Nc1nnc2cc(COc3cc(Cl)cc(OC(F)(F)F)c3)c(C3CC3)cn12)C1CC1` [Example 42, N-(7-((3-chloro-5-(trifluoromethoxy)phenoxy)methyl)-6-cyclopropyl-[1,2,4]triazolo[4,3-a]pyridin-3-yl)cyclopropanesulfonamide], the pIC50 was 8.55.

As to `CS(=O)(=O)Nc1nnc2cc(COc3cc(Cl)cc(OC(F)(F)F)c3)c(C3CC3)cn12` [Example 43, N-(7-((3-chloro-5-(trifluoromethoxy)phenoxy)methyl)-6-cyclopropyl-[1,2,4]triazolo[4,3-a]pyridin-3-yl)methanesulfonamide], the pIC50 is 8.60.

With `Cc1cc(Cl)cc(OCc2cc3nnc(NS(C)(=O)=O)n3cc2C2CC2)c1` [Example 47, N-(7-((3-chloro-5-methylphenoxy)methyl)-6-cyclopropyl-[1,2,4]triazolo[4,3-a]pyridin-3-yl)methanesulfonamide], the pIC50 was 8.14.

For the compound `Cc1cc(Cl)cc(OCc2cc3nnc(NS(=O)(=O)C4CC4)n3cc2C2CC2)c1` [Example 48, N-(7-((3-chloro-5-methylphenoxy)methyl)-6-cyclopropyl-[1,2,4]triazolo[4,3-a]pyridin-3-yl)cyclopropanesulfonamide], the pIC50 was 8.20.

For `CC1(S(=O)(=O)Nc2nnc3cc(COc4cc(Cl)cc(OC(F)(F)F)c4)c(C4CC4)cn23)CC1` [Example 49, N-(7-((3-chloro-5-(trifluoromethoxy)phenoxy)methyl)-6-cyclopropyl-[1,2,4]triazolo[4,3-a]pyridin-3-yl)-1-methylcyclopropane-1-sulfonamide], the pIC50 was 8.40.

(Values after patent publication US9550775B2, “Substituted triazolopyridines and methods of use thereof” (GENENTECH, INC., priority 2013, dated 2017).)
